# Experimental data taken from publication PMC8364686, “Safety, tolerability, pharmacokinetics and pharmacodynamics of single oral doses of BI 187004, an inhibitor of 11beta-hydroxysteroid dehydrogenase-1, in healthy male volunteers with overweight or obesity” (Clinical Diabetes and Endocrinology, 2021).
# Assay: Plasma pharmacokinetics of BI 187004 after single oral doses (LC–MS/MS)
# Details: male, human, plasma, po; for concentration at 6 h: planned time 6 h; for concentration at 8 h: planned time 8 h; for concentration at 10 h: planned time 10 h; for concentration at 12 h: planned time 12 h; for concentration at 36 h: planned time 36 h; for concentration at 48 h: planned time 48 h; for concentration at 72 h: planned time 72 h; for concentration at 96 h: planned time 96 h; for concentration at 0.5 h: planned time 0.5 h; for concentration at 1 h: planned time 1 h; for concentration at 1.5 h: planned time 1.5 h; for concentration at 2 h: planned time 2 h; for concentration at 2.5 h: planned time 2.5 h; for concentration at 3 h: planned time 3 h; for concentration at 4 h: planned time 4 h; for concentration at 5 h: planned time 5 h
# [1] = 240 mg, BI 187004 plasma concentrations, gMean, 240 mg single oral
# [2] = 360 mg, BI 187004 plasma concentrations, 360 mg single oral, individual subjects
# [3] = 360 mg, BI 187004 plasma concentrations, Max, 360 mg single oral
# [4] = 360 mg, BI 187004 plasma concentrations, Mean, 360 mg single oral
# [5] = 360 mg, BI 187004 plasma concentrations, Median, 360 mg single oral
# [6] = 360 mg, BI 187004 plasma concentrations, Min, 360 mg single oral
# [7] = 360 mg, BI 187004 plasma concentrations, gMean, 360 mg single oral
smiles,measurement,setting,value
N#Cc1ccc2c(c1)[C@H]1CCCN(C(=O)c3ccc4[nH]cnc4c3)[C@H]1C2 [BI 187004],concentration at 6 h,[1],3.28 µM
same,concentration at 8 h,[1],2.65 µM
same,concentration at 10 h,[1],2.6 µM
same,concentration at 12 h,[1],1.99 µM
same,concentration at 24 h,"240 mg, BI 187004 plasma concentrations, gMean, 240 mg single oral, planned time 24 h",2.13 µM
same,concentration at 36 h,[1],0.885 µM
same,concentration at 48 h,[1],0.465 µM
same,concentration at 72 h,[1],0.118 µM
same,concentration at 96 h,[1],0.0419 µM
same,concentration at 24 h,"240 mg, C24 gMean (%gCV), 240 mg single oral dose",2.13 µM
same,AUC(0-inf),360 mg,191 µM·h
same,AUC(0-t),360 mg,135 µM·h
same,Cmax,360 mg,13.4 µM
same,Tmax,360 mg,1 h
same,Vd/F,360 mg,110 L
same,half-life,360 mg,13.9 h
same,concentration at 6 h,[2],10.2 µM
same,concentration at 8 h,[2],9.51 µM
same,concentration at 12 h,[2],6.08 µM
same,concentration at 0.5 h,[3],16.8 µM
same,concentration at 1 h,[3],18.4 µM
same,concentration at 1.5 h,[3],15.9 µM
same,concentration at 2 h,[3],14.5 µM
same,concentration at 2.5 h,[3],14.6 µM
same,concentration at 3 h,[3],12.9 µM
same,concentration at 4 h,[3],12.2 µM
same,concentration at 5 h,[3],9.63 µM
same,concentration at 6 h,[3],10.2 µM
same,concentration at 8 h,[3],9.51 µM
same,concentration at 10 h,[3],7.68 µM
same,concentration at 12 h,[3],6.08 µM
same,concentration at 24 h,"360 mg, BI 187004 plasma concentrations, Max, 360 mg single oral, planned time 24 h",4.74 µM
same,concentration at 36 h,[3],1.99 µM
same,concentration at 48 h,[3],1.47 µM
same,concentration at 72 h,[3],0.516 µM
same,concentration at 96 h,[3],0.174 µM
same,concentration at 0.5 h,[4],11.5 µM
same,concentration at 1 h,[4],13.1 µM
same,concentration at 1.5 h,[4],11.5 µM
same,concentration at 2 h,[4],10.9 µM
same,concentration at 2.5 h,[4],10.3 µM
same,concentration at 3 h,[4],9.36 µM
same,concentration at 4 h,[4],9.59 µM
same,concentration at 5 h,[4],7.55 µM
same,concentration at 6 h,[4],7.25 µM
same,concentration at 8 h,[4],6.85 µM
same,concentration at 10 h,[4],5.5 µM
same,concentration at 12 h,[4],4.83 µM
same,concentration at 24 h,"360 mg, BI 187004 plasma concentrations, Mean, 360 mg single oral, planned time 24 h",2.84 µM
same,concentration at 36 h,[4],1.48 µM
same,concentration at 48 h,[4],0.898 µM
same,concentration at 72 h,[4],0.301 µM
same,concentration at 96 h,[4],0.095 µM
same,concentration at 0.5 h,[5],11.6 µM
same,concentration at 1 h,[5],13.3 µM
same,concentration at 1.5 h,[5],11.6 µM
same,concentration at 2 h,[5],10.8 µM
same,concentration at 2.5 h,[5],10.2 µM
same,concentration at 3 h,[5],9.34 µM
same,concentration at 4 h,[5],10.3 µM
same,concentration at 5 h,[5],7.87 µM
same,concentration at 6 h,[5],6.45 µM
same,concentration at 8 h,[5],6.27 µM
same,concentration at 10 h,[5],5.62 µM
same,concentration at 12 h,[5],4.63 µM
same,concentration at 24 h,"360 mg, BI 187004 plasma concentrations, Median, 360 mg single oral, planned time 24 h",2.66 µM
same,concentration at 36 h,[5],1.49 µM
same,concentration at 48 h,[5],0.869 µM
same,concentration at 72 h,[5],0.281 µM
same,concentration at 96 h,[5],0.0816 µM
same,concentration at 0.5 h,[6],5.8 µM
same,concentration at 1 h,[6],7.17 µM
same,concentration at 1.5 h,[6],6.45 µM
same,concentration at 2 h,[6],6.66 µM
same,concentration at 2.5 h,[6],5.66 µM
same,concentration at 3 h,[6],6.3 µM
same,concentration at 4 h,[6],5.67 µM
same,concentration at 5 h,[6],4.81 µM
same,concentration at 6 h,[6],5.79 µM
same,concentration at 8 h,[6],5.06 µM
same,concentration at 10 h,[6],3.36 µM
same,concentration at 12 h,[6],3.78 µM
same,concentration at 24 h,"360 mg, BI 187004 plasma concentrations, Min, 360 mg single oral, planned time 24 h",1.79 µM
same,concentration at 36 h,[6],0.83 µM
same,concentration at 48 h,[6],0.375 µM
same,concentration at 72 h,[6],0.0691 µM
same,concentration at 96 h,[6],0.0168 µM
same,concentration at 0.5 h,[7],10.8 µM
same,concentration at 1 h,[7],12.6 µM
same,concentration at 1.5 h,[7],11.1 µM
same,concentration at 2 h,[7],10.6 µM
same,concentration at 2.5 h,[7],9.71 µM
same,concentration at 3 h,[7],9.14 µM
same,concentration at 4 h,[7],9.32 µM
same,concentration at 5 h,[7],7.36 µM
same,concentration at 6 h,[7],7.11 µM
same,concentration at 8 h,[7],6.71 µM
same,concentration at 10 h,[7],5.3 µM
same,concentration at 12 h,[7],4.78 µM
same,concentration at 24 h,"360 mg, BI 187004 plasma concentrations, gMean, 360 mg single oral, planned time 24 h",2.69 µM
same,concentration at 36 h,[7],1.41 µM
same,concentration at 48 h,[7],0.814 µM
same,concentration at 72 h,[7],0.246 µM
same,concentration at 96 h,[7],0.0723 µM
same,concentration at 24 h,"360 mg, C24 gMean (%gCV), 360 mg single oral dose",2.69 µM
